This is an account of results in ChEMBL document CHEMBL4622943, “Design, synthesis and biological evaluation of 2-methyl-(1,1'-biphenyl)-pyrimidine conjugates” (Bioorg Med Chem Lett, 2020).

The source made the active and inactive calls. The rule behind the calls is not given here.

Usually IC50 stands for the concentration that inhibits the measured activity by half. The term inhibition denotes the percentage by which the read-out fell short of the control.

A short description of data set [1]: Selectivity index, ratio of IC50 for human MRC5 cells to IC50 for human A549 cells assessed as cell growth inhibition by CCK8 assay. It counts as toxicity. Conditions: MRC5 cells versus A549 cells, read-out: Ratio IC50.
The nature of data set [2]: Selectivity index, ratio of IC50 for human MRC5 cells to IC50 for human HepG2 cells assessed as cell growth inhibition by CCK8 assay. Conditions: MRC5 cells versus HepG2 cells, read-out: Ratio IC50. It counts as toxicity. (Formazan colour is commonly taken as a measure of viable cells.)
A further data set concerns MRC5. Kind of data set: Cytotoxicity against human MRC5 cells assessed as cell growth inhibition by CCK8 assay. It counts as cell-based.
Data set [3] in a line: Selectivity index, ratio of IC50 for human MRC5 cells to IC50 for human HT-29 cells assessed as cell growth inhibition by CCK8 assay. Conditions: MRC5 cells versus HT-29 cells, read-out: Ratio IC50. It counts as toxicity.
A short description of data set [4]: Selectivity index, ratio of IC50 for human MRC5 cells to IC50 for human SKOV3 cells assessed as cell growth inhibition by CCK8 assay. Type of data set: toxicity. Conditions: MRC5 cells versus SKOV3 cells, read-out: Ratio IC50.
The subject of another data set is HepG2. Kind of data set: Inhibition of cell migration in human HepG2 cells incubated for 48 hrs by wound healing assay. It counts as functional, cell-based.
For the next data set, the system named is HT-29. The experiment in a line: Inhibition of cell migration in human HT-29 cells incubated for 48 hrs by wound healing assay. It counts as functional, cell-based.
For data set [5], the system named is A549. Kind of data set: Inhibition of cell migration in human A549 cells incubated for 48 hrs by wound healing assay. It counts as functional, cell-based.
The subject of data set [6] is SK-OV-3. Kind of data set: Inhibition of cell migration in human SKOV3 cells incubated for 48 hrs by wound healing assay. It counts as functional, cell-based.
Data set [7] relates to A549. The experiment in a line: Inhibition of cell migration in human A549 cells at 0.6 uM incubated for 48 hrs by wound healing assay relative to control. It counts as functional. Conditions: A549, 48 h.
Data set [8] has as its system SK-OV-3. The experiment in a line: Inhibition of cell migration in human SKOV3 cells at 0.6 uM incubated for 48 hrs by wound healing assay relative to control. It counts as functional. Conditions: SK-OV-3, 48 h.
Data set [9] deals with A549. The experiment in a line: Antiinvasive activity against human A549 cells at 0.6 uM after 24 hrs by crystal violet staining based transwell assay relative to control. Type of data set: functional.
In data set [10] the test system is A549. The experiment in a line: Induction of apoptosis in human A549 cells assessed as live cells at 5 uM by FITC staining based flow cytometry (reference value: 96 to 96.6 %). Type of data set: functional. For orientation: In flow cytometry, cells or beads pass a laser one at a time.
Data set [11] concerns A549. Kind of data set: Induction of apoptosis in human A549 cells assessed as early apoptotic cells at 5 uM by FITC staining based flow cytometry (reference value: 0.34 to 0.39 %). Type of data set: functional.
Data set [12] relates to A549. Kind of data set: Induction of apoptosis in human A549 cells assessed as late apoptotic cells at 5 uM by FITC staining based flow cytometry (reference value: 2.12 to 2.33 %). Type of data set: functional.
Data set [13] deals with A549. Kind of data set: Induction of apoptosis in human A549 cells assessed as necrotic cells at 5 uM by FITC staining based flow cytometry (reference value: 0.78 to 1.49 %). It counts as functional.
Data set [14] deals with A549. The experiment in a line: Induction of apoptosis in human A549 cells assessed as live cells at 10 uM by FITC staining based flow cytometry (reference value: 96 to 96.6 %). Type of data set: functional.
Data set [15] concerns A549. Kind of data set: Induction of apoptosis in human A549 cells assessed as early apoptotic cells at 10 uM by FITC staining based flow cytometry (reference value: 0.34 to 0.39 %). It counts as functional.
The subject of data set [16] is A549. Kind of data set: Induction of apoptosis in human A549 cells assessed as late apoptotic cells at 10 uM by FITC staining based flow cytometry (reference value: 2.12 to 2.33 %). Type of data set: functional.
Data set [17] has as its system A549. The experiment in a line: Induction of apoptosis in human A549 cells assessed as necrotic cells at 10 uM by FITC staining based flow cytometry (reference value: 0.78 to 1.49 %). It counts as functional.
In data set [18] the test system is SK-OV-3. The experiment in a line: Antiinvasive activity against human SKOV3 cells at 0.6 uM after 24 hrs by crystal violet staining based transwell assay relative to control. Type of data set: functional.
Data set [19] deals with SK-OV-3. Kind of data set: Induction of apoptosis in human SKOV3 cells assessed as live cells at 5 uM by FITC staining based flow cytometry (reference value: 95.5 to 96 %). Type of data set: functional.
For data set [20], the system named is SK-OV-3. The experiment in a line: Induction of apoptosis in human SKOV3 cells assessed as early apoptotic cells at 5 uM by FITC staining based flow cytometry (reference value: 0.59 to 0.97 %). Type of data set: functional.
The subject of data set [21] is SK-OV-3. Kind of data set: Induction of apoptosis in human SKOV3 cells assessed as late apoptotic cells at 5 uM by FITC staining based flow cytometry (reference value: 2.14 to 2.83 %). It counts as functional.
For data set [22], the system named is SK-OV-3. The experiment in a line: Induction of apoptosis in human SKOV3 cells assessed as necrotic cells at 5 uM by FITC staining based flow cytometry (reference value: 1.74 to 1.93 %). It counts as functional.
The test system of data set [23] is SK-OV-3. The experiment in a line: Induction of apoptosis in human SKOV3 cells assessed as live cells at 10 uM by FITC staining based flow cytometry (reference value: 95.5 to 96 %). Type of data set: functional.
Data set [24] relates to SK-OV-3. Kind of data set: Induction of apoptosis in human SKOV3 cells assessed as early apoptotic cells at 10 uM by FITC staining based flow cytometry (reference value: 0.59 to 0.97 %). Type of data set: functional.
Data set [25] deals with SK-OV-3. Kind of data set: Induction of apoptosis in human SKOV3 cells assessed as late apoptotic cells at 10 uM by FITC staining based flow cytometry (reference value: 2.14 to 2.83 %). Type of data set: functional.
Data set [26] has as its system SK-OV-3. Kind of data set: Induction of apoptosis in human SKOV3 cells assessed as necrotic cells at 10 uM by FITC staining based flow cytometry (reference value: 1.74 to 1.93 %). Type of data set: functional.
For a further data set, the system named is HCC827. The experiment in a line: Antiproliferative activity against human HCC827 cells assessed as cell growth inhibition by CCK8 assay. It counts as functional, cell-based.
A further data set deals with NCI-H1299. Kind of data set: Antiproliferative activity against human H1299 cells assessed as cell growth inhibition by CCK8 assay. Type of data set: functional, cell-based.
The subject of the next data set is MDA-MB-231. The experiment in a line: Antiproliferative activity against human MDA-MB-231 cells assessed as cell growth inhibition by CCK8 assay. It counts as functional, cell-based.
The test system of a further data set is A-375. Kind of data set: Antiproliferative activity against human A375 cells assessed as cell growth inhibition by CCK8 assay. Type of data set: functional, cell-based.
For a further data set, the system named is AGS. The experiment in a line: Antiproliferative activity against human AGS cells assessed as cell growth inhibition by CCK8 assay. Type of data set: functional, cell-based.
The target in data set [27] is Programmed cell death protein 1/Programmed cell death 1 ligand 1 (Homo sapiens, UniProt Q15116+Q9NZQ7). Kind of data set: Inhibition of PD1 (unknown origin)/PDL1 (unknown origin) protein-protein interaction by HTRF assay. It counts as protein-complex assay.
Sequence of Programmed cell death protein 1/Programmed cell death 1 ligand 1 (Q15116 whole entry): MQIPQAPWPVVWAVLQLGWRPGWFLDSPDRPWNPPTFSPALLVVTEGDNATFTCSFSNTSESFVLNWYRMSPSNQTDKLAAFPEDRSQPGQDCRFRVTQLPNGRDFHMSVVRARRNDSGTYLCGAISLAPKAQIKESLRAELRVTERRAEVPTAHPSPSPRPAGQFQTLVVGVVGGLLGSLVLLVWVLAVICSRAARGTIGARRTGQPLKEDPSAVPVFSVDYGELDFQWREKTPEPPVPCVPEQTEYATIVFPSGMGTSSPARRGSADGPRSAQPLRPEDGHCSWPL
Sequence of Programmed cell death protein 1/Programmed cell death 1 ligand 1 (Q9NZQ7 whole entry): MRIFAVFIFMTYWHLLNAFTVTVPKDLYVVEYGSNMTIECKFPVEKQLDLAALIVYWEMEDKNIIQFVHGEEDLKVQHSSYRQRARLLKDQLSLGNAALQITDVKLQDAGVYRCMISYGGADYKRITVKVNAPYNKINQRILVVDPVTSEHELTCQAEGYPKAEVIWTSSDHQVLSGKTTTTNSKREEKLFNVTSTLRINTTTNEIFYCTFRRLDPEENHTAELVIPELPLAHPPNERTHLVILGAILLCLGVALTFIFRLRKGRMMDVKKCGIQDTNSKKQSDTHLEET

Regarding `CCN(CC)CCCNc1cc(N2CCOCC2)nc(NCc2cccc(-c3ccccc3)c2C)n1`, the selectivity ratio turned out to be 114 in data set [1], 165 in data set [2], 119 in data set [3] and 119 in data set [4]. For the same compound, the IC50 with MRC5 was 924 µM. Besides, the inhibition result in the data set with HepG2, with HT-29, with A549 [5] and in the data set with SK-OV-3 [6] was “Active” in each case.
Consider `Cc1c(CNc2nc(NCCCN(C)C)cc(N3CCOCC3)n2)cccc1-c1ccccc1`, for which the selectivity ratio was 112 in data set [1], 213 in data set [2], 129 in data set [3] and 129 in data set [4]. Besides, the 50% inhibitory concentration (IC50) in the data set on MRC5 amounted to 1050 µM. Moreover, the inhibition at 0.6 µM with A549 [7] was determined as 53.4%; in the data set on SK-OV-3 [8], 39.6%. Besides, the inhibition result in the data set on HepG2, in the data set on HT-29, in the data set with A549 [5] and in the data set with SK-OV-3 [6] was “Active” throughout. Further, the Activity in the data set with A549 [9] worked out at 21.81%; with A549 [10] it was 92.7%; in the data set on A549 [11], 1.28%; in the data set with A549 [12], 3.99%; in the data set on A549 [13] it was 2.05%; in the data set with A549 [14], 81.7%. Moreover, the Activity in the data set on A549 [15] is recorded as 4.42%; in the data set with A549 [16], 18.2%; with A549 [17], 3.76%.
Regarding `Cc1c(CNc2nc(NCCCN3CCCCC3)cc(N3CCOCC3)n2)cccc1-c1ccccc1`, the selectivity ratio in data set [1] turned out to be 185; in data set [2] it was 295; in [3] it was 267; in [4], 267. Besides, the IC50 in the data set with MRC5 worked out at 879 µM. In addition, the inhibition entry with HepG2, with HT-29, in the data set on A549 [5] and in the data set with SK-OV-3 [6] was “Active” in each case. Further, the Activity in the data set on SK-OV-3 [18] came to 60%; in the data set with SK-OV-3 [19], 95%; in the data set on SK-OV-3 [20], 0.85%; with SK-OV-3 [21], 2.31%; in the data set with SK-OV-3 [22] it was 1.87%; with SK-OV-3 [23] it was 91.3%. Also, the Activity in the data set on SK-OV-3 [24] worked out at 1.49%; in the data set with SK-OV-3 [25], 4.98%; in the data set on SK-OV-3 [26] it was 2.18%.
As to `CCN(CC)CCCNc1cc(N2CCNCC2)nc(NCc2cccc(-c3ccccc3)c2C)n1`, the selectivity ratio was determined as 147 in data set [1], 82 in data set [2], 278 in data set [3] and 278 in data set [4]. Further, the IC50 with MRC5 amounted to 579 µM; in the data set with HCC827, 5.27 µM; in the data set with NCI-H1299 it was 6.74 µM; in the data set on MDA-MB-231 it was 4.88 µM; with A-375, 4.03 µM; in the data set with AGS, 3.11 µM. The compound further returned an IC50 in data set [27] of 5.15 µM. For the same compound, the inhibition at 0.6 µM with A549 [7] was found to be 42.4%; in the data set on SK-OV-3 [8], 68.6%. Further, the inhibition result with HepG2, in the data set on HT-29, in the data set with A549 [5] and in the data set on SK-OV-3 [6] was “Active” each time. Further, the Activity in the data set with A549 [9] was found to be 70.23%; with SK-OV-3 [18], 66.68%; with A549 [10], 87.1%; in the data set with A549 [11] it was 4.3%; with A549 [12] it was 6.33%; with A549 [13], 2.24%. Moreover, the Activity in the data set on A549 [14] was 59.6%; in the data set on A549 [15], 17.7%; in the data set with A549 [16], 14.6%; in the data set on A549 [17], 8.19%; in the data set on SK-OV-3 [19] it was 87.8%; with SK-OV-3 [20], 5%. Also, the Activity in the data set with SK-OV-3 [21] is recorded as 4.08%; in the data set on SK-OV-3 [22], 3.16%; in the data set with SK-OV-3 [23], 54.5%; with SK-OV-3 [24] it was 11.5%; in the data set with SK-OV-3 [25], 8.26%; with SK-OV-3 [26], 25.7%.
For `Cc1c(CNc2nc(NCCCN3CCCC3)cc(N3CCOCC3)n2)cccc1-c1ccccc1`, the selectivity ratio in [1] was found to be 103; in [2] it was 198; in data set [3] it was 139; in [4], 139. Also, the half-inhibitory concentration (IC50) with MRC5 amounted to 1050 µM; in the data set on HCC827 it was 7.28 µM; in the data set with NCI-H1299, 8.1 µM; in the data set with MDA-MB-231, 6.75 µM; in the data set with A-375, 7 µM; in the data set on AGS it was 4.52 µM. The inhibition entry in the data set with HepG2, in the data set with HT-29, in the data set with A549 [5] and with SK-OV-3 [6] was “Active” throughout.
Take `Cc1c(CNc2nc(NCCCN3CCOCC3)cc(N3CCOCC3)n2)cccc1-c1ccccc1`: the IC50 was 7.28 µM in the data set with HCC827; 8.1 µM in the data set on NCI-H1299; 6.75 µM in the data set on MDA-MB-231; 7 µM in the data set with A-375; 4.52 µM in the data set on AGS.
